{"source": "patent US20230174947A1", "about": "“METHODS AND COMPOSITIONS FOR IMPROVING ENDOTHELIAL CELL BARRIER” (United Therapeutics Corporation, priority 2021, published 2023)", "test_system": "HPAECs", "assay": "HPAEC proliferation, cell counts by Hoechst-stained nuclei (Celigo)", "format": "cell-based, Human", "details": "Forskolin 40 μM, FTY720-P 50 nM, Methylprednisolone 1 μM; MCDB131", "protocol": "HPAECs were seeded at low initial confluency (3000-5000 cells/cm^2) to study their growth on Collagen type-I coated culture dishes. Barrier agonists were added at 0 hours (FIG. 10A) or at 48 hours (FIG. 10B) and were maintained through the remainder of culture. Barrier agonist compounds, when added to the culture medium (MCDB131), were added at the following concentrations: Forskolin (40 μM), FTY720-P (50 nM), Methylprednisolone (1 μM). Cell counts were measured through individual quantification of nuclei, stained with Hoechst dye and imaged on the Celigo Imaging Cytometer (Nexcelom Bioscience)."}
{"molecule": "CCCCCCCCc1ccc(CC[C@](N)(CO)COP(=O)(O)O)cc1", "note": "[FTY720P, fingolimod-phosphate]", "values": [{"measurement": "endothelial cell proliferation (summary statement of Example 6)", "result": "no reduction in endothelial proliferation"}]}
